{"source": "patent US11040981B2", "about": "“Pyrrolotriazine compounds and methods of inhibiting TAM kinases” (Syros Pharmaceuticals, Inc., priority 2017, dated 2021)", "key": {"TYRO3": {"molecular_target": "T1, TYRO3 (Homo sapiens, UniProt Q06418)", "T1 sequence (Q06418 41-890)": "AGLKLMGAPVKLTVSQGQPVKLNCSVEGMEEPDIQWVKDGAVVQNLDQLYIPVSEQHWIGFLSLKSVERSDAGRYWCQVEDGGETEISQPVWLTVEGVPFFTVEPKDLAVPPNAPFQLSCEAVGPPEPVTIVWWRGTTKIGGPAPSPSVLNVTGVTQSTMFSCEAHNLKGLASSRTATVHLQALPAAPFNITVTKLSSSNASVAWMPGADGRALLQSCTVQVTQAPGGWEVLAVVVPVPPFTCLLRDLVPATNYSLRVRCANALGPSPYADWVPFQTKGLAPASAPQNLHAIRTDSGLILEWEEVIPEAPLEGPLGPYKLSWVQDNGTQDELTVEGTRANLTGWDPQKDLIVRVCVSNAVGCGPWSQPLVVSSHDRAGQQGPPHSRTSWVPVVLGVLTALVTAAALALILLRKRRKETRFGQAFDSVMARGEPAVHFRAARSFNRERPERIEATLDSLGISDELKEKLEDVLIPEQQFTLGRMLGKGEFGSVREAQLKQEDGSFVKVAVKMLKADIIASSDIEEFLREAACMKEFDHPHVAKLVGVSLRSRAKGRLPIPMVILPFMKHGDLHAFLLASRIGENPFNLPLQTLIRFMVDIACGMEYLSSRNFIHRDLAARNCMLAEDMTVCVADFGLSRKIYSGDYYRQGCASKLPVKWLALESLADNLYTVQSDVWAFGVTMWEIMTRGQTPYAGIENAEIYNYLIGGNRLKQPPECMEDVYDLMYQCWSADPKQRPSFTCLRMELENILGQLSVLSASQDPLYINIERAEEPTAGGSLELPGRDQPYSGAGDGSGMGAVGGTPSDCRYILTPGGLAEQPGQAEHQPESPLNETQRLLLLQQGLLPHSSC", "experiment": "TR-FRET kinase activity assay, TYRO3", "type": "biochemical", "conditions": "ATP at Km, 60 minutes", "how_it_was_run": "(§1)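 IC50 reflects the drop in TR-FRET between Eu anti-phosphotyrosine antibody and labelled peptide after a 60-minute room-temperature reaction. Buffer was 50 mM HEPES pH 7.5 with 10 mM MgCl2, 1 mM EGTA, 0.01% Brij 35 and 1 mM DTT, with ATP at Km per enzyme and EDTA quench.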"}, "FLT3": {"molecular_target": "T2, FLT3 (Homo sapiens, UniProt P36888)", "T2 sequence (P36888 27-993)": "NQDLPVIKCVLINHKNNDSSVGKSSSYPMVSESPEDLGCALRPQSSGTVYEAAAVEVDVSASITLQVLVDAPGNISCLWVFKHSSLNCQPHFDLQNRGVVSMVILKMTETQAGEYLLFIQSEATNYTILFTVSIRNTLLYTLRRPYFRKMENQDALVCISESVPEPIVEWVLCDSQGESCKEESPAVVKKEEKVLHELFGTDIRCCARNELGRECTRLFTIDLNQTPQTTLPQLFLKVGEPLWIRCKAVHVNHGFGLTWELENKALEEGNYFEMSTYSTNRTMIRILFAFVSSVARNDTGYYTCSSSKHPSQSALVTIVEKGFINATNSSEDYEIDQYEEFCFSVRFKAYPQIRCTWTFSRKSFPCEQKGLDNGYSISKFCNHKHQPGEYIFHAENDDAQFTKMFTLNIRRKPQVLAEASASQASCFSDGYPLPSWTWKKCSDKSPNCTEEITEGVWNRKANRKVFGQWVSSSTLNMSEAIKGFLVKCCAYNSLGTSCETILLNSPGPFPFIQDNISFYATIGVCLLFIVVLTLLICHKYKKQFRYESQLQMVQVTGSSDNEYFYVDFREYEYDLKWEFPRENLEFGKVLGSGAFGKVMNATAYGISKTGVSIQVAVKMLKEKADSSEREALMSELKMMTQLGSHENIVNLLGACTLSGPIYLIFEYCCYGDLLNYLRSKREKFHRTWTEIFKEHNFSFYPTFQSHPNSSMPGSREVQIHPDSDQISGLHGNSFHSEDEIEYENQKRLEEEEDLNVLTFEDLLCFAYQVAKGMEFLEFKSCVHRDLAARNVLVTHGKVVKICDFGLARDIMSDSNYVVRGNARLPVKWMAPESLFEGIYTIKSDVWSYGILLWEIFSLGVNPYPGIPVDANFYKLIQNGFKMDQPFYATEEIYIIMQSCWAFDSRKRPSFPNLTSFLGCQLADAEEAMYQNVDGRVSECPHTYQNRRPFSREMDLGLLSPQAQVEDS", "experiment": "TR-FRET kinase activity assay, FLT3", "type": "biochemical", "conditions": "ATP at Km, 60 minutes", "how_it_was_run": "as §1"}}}
{"smiles": "COC[C@H](C)Nc1ncc2c(-c3ccnc(N4C[C@H]5CC[C@@H](C4)O5)c3)cc([C@H]3CC[C@H](O)CC3)n2n1", "note": "[Compound 445]", "values": [{"measurement": "IC50", "setting": "TYRO3", "result": "≤ 100", "unit": "nM"}, {"measurement": "IC50", "setting": "FLT3", "result": "100 to 1000", "unit": "nM"}]}
{"smiles": "COC[C@H](C)Nc1ncc2c(-c3cnn(C4COC4)c3)cc(C3CCOCC3)n2n1", "note": "[Compound 503]", "values": [{"measurement": "IC50", "setting": "TYRO3", "result": "≤ 100", "unit": "nM"}, {"measurement": "IC50", "setting": "FLT3", "result": "1000 to 10000", "unit": "nM"}]}
{"smiles": "CC[C@H](C)Nc1ncc2c(C3CCOCC3)cc([C@H]3CC[C@H](O)CC3)n2n1", "note": "[Compound 129, (trans)-4-(2-((S)-sec-butylamino)-5-(tetrahydro-2H-pyran-4-yl)pyrrolo[2,1-f][1,2,4]triazin-7-yl)cyclohexanol]", "values": [{"measurement": "IC50", "setting": "TYRO3", "result": "≤ 100", "unit": "nM"}, {"measurement": "IC50", "setting": "FLT3", "result": "1000 to 10000", "unit": "nM"}]}
{"smiles": "COC[C@H](C)Nc1ncc2c(-c3cnn([C@@H]4CCN(C)C4=O)c3)cc([C@H]3CC[C@H](O)CC3)n2n1", "note": "[Compound 471]", "values": [{"measurement": "IC50", "setting": "TYRO3", "result": "≤ 100", "unit": "nM"}, {"measurement": "IC50", "setting": "FLT3", "result": "1000 to 10000", "unit": "nM"}]}
{"smiles": "COC[C@H](C)Nc1ncc2c(C3=C[C@H]4CCC(C3)N4C(C)=O)cc([C@H]3CC[C@H](O)CC3)n2n1", "note": "[Compound 468]", "values": [{"measurement": "IC50", "setting": "TYRO3", "result": "≤ 100", "unit": "nM"}, {"measurement": "IC50", "setting": "FLT3", "result": "100 to 1000", "unit": "nM"}]}
{"smiles": "COC[C@H](C)Nc1ncc2c(C3=C[C@@H]4CC[C@H](C3)N4CC(F)(F)F)cc([C@H]3CC[C@H](O)CC3)n2n1", "note": "[Compound 485]", "values": [{"measurement": "IC50", "setting": "TYRO3", "result": "≤ 100", "unit": "nM"}, {"measurement": "IC50", "setting": "FLT3", "result": "100 to 1000", "unit": "nM"}]}
{"smiles": "CC[C@H](C)Nc1ncc2c(C3=CCOCC3)cc([C@H]3CC[C@H](O)CC3)n2n1", "note": "[Compound 128]", "values": [{"measurement": "IC50", "setting": "TYRO3", "result": "≤ 100", "unit": "nM"}, {"measurement": "IC50", "setting": "FLT3", "result": "≤ 100", "unit": "nM"}]}
{"smiles": "COC[C@H](C)Nc1ncc2c(-c3ccnc(N4CCNCC4)c3)cc([C@H]3CC[C@H](O)CC3)n2n1", "note": "[Compound 434]", "values": [{"measurement": "IC50", "setting": "TYRO3", "result": "≤ 100", "unit": "nM"}, {"measurement": "IC50", "setting": "FLT3", "result": "100 to 1000", "unit": "nM"}]}
